We go through two compounds from patent publication US7410971B2, “1,2-di(cyclic)substituted benzene compounds” (Eisai R&D Management Co., Ltd., priority 2003, dated 2008).

The subject of this test is colon-infiltrating neutrophils (myeloperoxidase enzyme activity). The test can be described thus: Oxazolone-induced colon neutrophil infiltration model. Format: in vivo, Balb/c mice. To be noted: Mus musculus, po, 30 mg/kg orally 30 minutes prior to intrarectal oxazolone, colon myeloperoxidase activity 4 hours after, vs oxazolone control group, read-out: Inhibitory rate (%). How it is done:
Evaluation of Compounds in Oxazolone-Induced Colon Neutrophil Infiltration Model
<Sensitization with Oxazolone>
Five- to six-week-old male Balb/c mice (Charles River Japan) were shaven at the abdomen to an approximately 2 cm square area. A 100% ethanol solution containing 3% 4-ethoxymethylene-2-phenyl-2-oxazolin-5-one (hereinafter referred to as “oxazolone”; Sigma) was applied at 150 μl onto the abdomen of each mouse.
<Preparation of Emulsion Containing Oxazolone>
Distilled water (Otsuka Pharmaceutical) was added in an equivalent volume to 100% peanut oil (Kanto Kagaku) containing 1% oxazolone, and the components were vigorously mixed with a glass syringe (Top Co.), to prepare an emulsion containing 0.5% oxazolone.
<Induction with Oxazolone>
The mice were fasted on the 3rd day after oxazolone sensitization, and were injected with 100 μl of the emulsion containing 0.5% oxazolone prepared in the way described above intrarectally at a site approximately 3 cm from the anus under ether anesthesia on the 4th day.
<Colon-Infiltrating Neutrophil Assay>
Each compound was suspended or dissolved in an aqueous solution containing 0.5% methyl cellulose (Wako), and orally administered at 30 mg/kg 30 minutes prior to the intrarectal injection of oxazolone emulsion. Four hours after the intrarectal injection of oxazolone, mice were sacrificed by cervical dislocation, and colons were extirpated, dissected in the longitudinal direction, washed with physiological saline, and transferred to ice-cooled plastic centrifugation tubes. After adding 1 ml of 50 mM potassium phosphate buffer (hereinafter abbreviated as KPB) (pH 6.0) to the tube, and the tissue were homogenized with PHYSCOTRON (Microtec Nition Co., Ltd.), 2 ml of 50 mM KPB (pH 6.0) was added and the mixture was centrifuged at 3000 rpm, 4° C. for 10 minutes and the supernatant was removed. To the resultant precipitate was added 1 ml of 50 mM KPB (pH 6.0) containing 0.5% hexadecyltrimethyl-ammonium bromide (Sigma), and freeze-thawed 3 to 5 times using liquid nitrogen and hot water, centrifuged at 3000 rpm, 4° C. for 10 minutes to yield a supernatant. The myeloperoxidase enzyme activity in the supernatant was assayed in the following manner. Specifically, to 10 μl of the obtained supernatant was added 200 μl of 50 mM KPB (pH6.0) containing 0.017% o-dianisidine (Sigma) and 0.0005% hydrogen peroxide (Wako), incubated at 37° C., and the change in absorbance at 450 nm was continuously measured for 1 minute using an EL340 Automated Microplate Reader (BIO-TEK) in kinetic mode. The units were the rate of change in absorbance per minute (mO.D./min.). With regard to the effect of each compound, the inhibitory rate (%) with respect to the oxazolone control group, i.e. the oxazolone-injected/compound-free group, was shown in the table 3.

For the compound `CCCCN1CCN(c2cc(C#N)ccc2[C@H]2CC[C@@H](C(C)(C)C)CC2)CC1.Cl` [Example 12, cis-4-(4-t-Butylcyclohexyl)-3-(4-butylpiperazine-1-yl)benzonitrile hydrochloride], the inhibition in vivo at 30 mg/kg amounted to 34%.
`CCCCN1CCN(c2cc(C#N)ccc2[C@H]2CC[C@H](C(C)(C)C)CC2)CC1.Cl` [Example 13, trans-4-(4-t-Butylcyclohexyl)-3-(4-butylpiperazin-1-yl)benzonitrile hydrochloride]: the inhibition in vivo at 30 mg/kg is 13%.
